Laboratory results as given in ChEMBL document CHEMBL4334533, “Design, synthesis, and validation of novel nitrogen-based chalcone analogs against triple negative breast cancer” (Eur J Med Chem, 2020).
Active and inactive are the calls of the source. No cut-off for these calls is given here.

Columns and labels:
MDA-MB-231 [1] = assay: Antimigratory activity in human MDA-MB-231 cells assessed as wound diameter at 5 uM measured after 24 hrs by microscopic analysis; format: functional, cell-based
MDA-MB-231 [2] = assay: Inhibition of anchorage-independent colony formation in human MDA-MB-231 cells at 5 uM measured upto 21 days by soft agar colony formation assay; format: functional, cell-based
MDA-MB-468 [3] = assay: Inhibition of anchorage-independent colony formation in human MDA-MB-468 cells at 5 uM measured upto 21 days by soft agar colony formation assay; format: functional, cell-based
MCF7 [4] = assay: Inhibition of anchorage-independent colony formation in human MCF7 cells at 5 uM measured upto 21 days by soft agar colony formation assay; format: functional, cell-based
[5] = Cytotoxicity against E6/E7 immortalized human HNME cells assessed as inhibition of cell growth measured after 48 hrs by microplate reader analysis; format: cell-based; conditions: read-out: LD50
MDA-MB-231 [6] = assay: Growth inhibition in human MDA-MB-231 cells at 10 uM after 48 hrs by MTT assay; format: functional, cell-based
MCF7 [7] = assay: Growth inhibition in human MCF7 cells at 10 uM after 48 hrs by MTT assay; format: functional, cell-based
MDA-MB-231 [8] = assay: Induction of morphological changes in human MDA-MB-231 cells assessed as mesenchymal-epithelial transition at 10 uM by inverted microscopic analysis; format: functional, cell-based
MDA-MB-468 [9] = assay: Induction of morphological changes in human MDA-MB-468 cells assessed as mesenchymal-epithelial transition at 10 uM by inverted microscopic analysis; format: functional, cell-based
MCF7 [10] = assay: Induction of morphological changes in human MCF7 cells assessed as mesenchymal-epithelial transition at 10 uM by inverted microscopic analysis; format: functional, cell-based
MDA-MB-231 [11] = assay: Antiproliferative activity against human MDA-MB-231 cells assessed as inhibition of cell growth measured after 48 hrs by microplate reader analysis; format: functional, cell-based; conditions: MDA-MB-231, 48 h
MDA-MB-468 [12] = assay: Antiproliferative activity against human MDA-MB-468 cells assessed as inhibition of cell growth measured after 48 hrs by microplate reader analysis; format: functional, cell-based; conditions: MDA-MB-468, 48 h
MCF7 [13] = assay: Antiproliferative activity against human MCF7 cells assessed as inhibition of cell growth measured after 48 hrs by microplate reader analysis; format: functional, cell-based; conditions: MCF7, 48 h
[14] = Selectivity index, ratio of LD50 for E6/E7 immortalized human HNME cells to IC50 for human MDA-MB-231 cells
[15] = Selectivity index, ratio of LD50 for E6/E7 immortalized human HNME cells to IC50 for human MDA-MB-468 cells
[16] = Selectivity index, ratio of LD50 for E6/E7 immortalized human HNME cells to IC50 for human MCF7 cells
MDA-MB-231 [17] = assay: Cell cycle arrest in human MDA-MB-231 cells assessed as accumulation at S phase at 10 uM measured after 48 hrs by propidium iodide staining-based flow cytometric analysis relative to control; format: functional
MDA-MB-468 [18] = assay: Cell cycle arrest in human MDA-MB-468 cells assessed as accumulation at S phase at 10 uM measured after 48 hrs by propidium iodide staining-based flow cytometric analysis relative to control; format: functional
MDA-MB-231 [19] = assay: Antiinvasive activity in human MDA-MB-231 cells assessed as reduction in 10% FBS-induced cell invasion at 10 uM by crystal violet staining based matrigel assay relative to control; format: functional; parameters: scale not given: the % may be the effect or the level left
MDA-MB-231 [20] = assay: Antimigratory activity in human MDA-MB-231 cells assessed as inhibition of cell motility after 24 hrs by microscopic analysis; format: functional, cell-based; conditions: MDA-MB-231, 24 h
Chorioallantoic membrane = assay: Antiangiogenic activity in Leghorn chicken fertilized egg chorioallantoic membrane assessed as reduction in number of blood vessels at 4 ug measured after 4 days by microscopic analysis; format: functional, tissue-based; conditions: Gallus gallus
MDA-MB-468 [21] = assay: Antiinvasive activity in human MDA-MB-468 cells assessed as reduction in 10% FBS-induced cell invasion at 10 uM by crystal violet staining based matrigel assay relative to control; format: functional
MCF7 [22] = assay: Antiinvasive activity in human MCF7 cells assessed as reduction in 10% FBS-induced cell invasion at 10 uM by crystal violet staining based matrigel assay relative to control; format: functional

For `COc1cc2c(c(OC)c1OC)-c1ccc(OC)c(=O)cc1[C@@H](NC(C)=O)CC2`, the Activity (MDA-MB-231 [1]) was “Active”, the inhibition (MDA-MB-231 [2]) was “Active” and the “colony formation inhibition (active/inactive)” value (MDA-MB-468 [3]) was “Active”. For the same compound, the inhibition (MCF7 [4]) was “Active”.

In the case of `CS(=O)(=O)c1ccc(C(=O)/C=C/c2ccc(N(CCCl)CCCl)cc2)cc1`, the CC50 at 48 h [5] is reported as 29.4 µM, the “growth inhibition (GI)” value (MDA-MB-231 [6]) is reported as “Active” and the “growth inhibition (GI)” value (MCF7 [7]) is reported as “Active”. For the same compound, the Activity (MDA-MB-231 [8]) was “Active”, the Activity (MDA-MB-468 [9]) was “Active” and the Activity (MCF7 [10]) was “Active”. The Activity (MDA-MB-231 [1]) was “Active”, the IC50 (MDA-MB-231 [11]) was 7.44 µM and the IC50 (MDA-MB-468 [12]) was 13.3 µM. The IC50 (MCF7 [13]) was 14.1 µM, the “Ratio LD50/IC50” value [14] was 3.95 and the “Ratio LD50/IC50” value [15] was 2.21. The “Ratio LD50/IC50” value [16] was 2.08, the Activity (MDA-MB-231 [17]) was 28.7% and the Activity (MDA-MB-468 [18]) was 46.8%. For the same compound, the Activity (MDA-MB-231 [19]) was 80%, the IC50 (MDA-MB-231 [20]) was 6.14 µM and the Activity (Chorioallantoic membrane) was “Active”. For the same compound, the inhibition (MDA-MB-231 [2]) was “Active”, the “colony formation inhibition (active/inactive)” value (MDA-MB-468 [3]) was “Active” and the “colony formation inhibition (activity call)” value (MCF7 [4]) was “Active”. For the same compound, the Activity (MDA-MB-468 [21]) was “Active” and the Activity (MCF7 [22]) was “Active”.
